# Measurements taken from paper PMC12350126, “A novel carboxamide bromodomain inhibitor attenuates osteoarthritis via epigenetic repression of NF-κB and MAPK signaling” (Frontiers in Immunology, 2025).
# Tests used:
# [1] = test system: NF-κB and MAPK signaling in mouse articular chondrocytes; assay: IL-1β-induced NF-κB and MAPK signaling in chondrocytes (western blotting, densitometry); type: cell-based; conditions: NCD 10, 50, 100 μM pretreatment 12 h, IL-1β 1 ng/mL 10 min
# Experimental: The total protein was extracted from the primary cultured chondrocytes using a lysis buffer, containing 150 mM NaCl, 1% NP-40, 50 mM Tris/HCl (pH 8.0), 0.2% sodium dodecyl sulfate, and 5 mM NaF, supplemented with protease and phosphatase inhibitor mixture (Roche, Madison, WI, USA). Proteins were separated using sodium dodecyl sulfate-polyacrylamide gel electrophoresis, and western blot analysis was performed using the following antibodies: goat anti‐Cox2 (sc‐1745; Santa Cruz Biotechnology, Dallas, TX, USA), mouse anti-Erk1/2 (610408; Becton Dickinson, NJ, USA), mouse anti-IκB [9242; Cell Signaling Technology (CST), MA, USA], mouse anti-p65 (8242; CST), mouse anti-phospho-p65 (3033; CST), mouse anti-p38 (#9212; CST), mouse anti-pp38 (#9215S; CST), mouse anti-c-Jun N-terminal kinase (Jnk) (#9252S; CST), mouse anti-pJnk (#9251S; CST), and mouse anti-pErk (#9101S; CST). Each signal was visualized using a SuperSignal West Dura Kit (Thermo Fisher Scientific, Waltham, MA, USA). Density analysis (AlphaEase FC 4.0; Alpha Innotech, CA, USA) was performed to calculate the relevant band intensities. Extracellular signal-regulated kinase (Erk) was used as the loading control ([28]).
# Figure 6 NCD regulates NF-κB and MAPK signaling pathways induced by IL-1β in mouse chondrocytes. Articular chondrocytes were pretreated with NCD at different concentrations (0,10, 50, or 100 μM) for 12 h (n = 3) before being stimulated with IL-1β (1 ng/mL) for 10 min. Levels of phosphorylated Jnk (pJnk), phosphorylated Erk (pErk), and phosphorylated p38 (pp38) proteins were determined using western blotting. (A, B) Protein levels of IκB were detected using western blotting (A) and densitometry (B). JQ-1 (200 μM) was used as a positive control. All data were analyzed using one‐way analysis of variance with Bonferroni’s test and expressed as mean ± standard error of mean (SEM) (n = 3); *P < 0.05, **P < 0.01, ***P < 0.001, and ****P < 0.0001 compared to the control group.
# [2] = test system: DMM-induced OA in C57BL/6J mice; assay: DMM-induced OA mouse model, oral administration; type: in vivo
# Experimental: (§1) All experiments were independently performed with at least three biological replicates to ensure reproducibility. For in vivo studies, animals were randomly assigned to treatment or control groups. To create a DMM-induced OA model, DMM surgery was performed on 12-week-old male C57BL/6J mice, following a previously reported protocol ([26]). Subsequently, NCD was either orally administered or injected in mice; the NCD (50 mg/kg) was orally administered on alternate days 4 weeks after DMM, whereas IA knee injection of NCD (10 μg) was administered once a week after 4 weeks. The mouse knee joint was processed for histological analysis 10 weeks after surgery. All experiments were independently performed with at least three biological replicates to ensure reproducibility. For in vivo studies, animals were randomly assigned to treatment or control groups. For in vitro experiments, cells were plated using a randomized layout across multi-well plates to avoid positional effects and ensure unbiased treatment assignment
# (§2) All histological samples were prepared independently by two researchers. Cartilage destruction was evaluated based on Safranin O staining and scored using the OA Research Association International (OARSI) grading system ([29]). Additionally, all histological samples were analyzed through osteophyte maturity scoring and subchondral bone plate (SBP) thickness. Osteophyte maturity was scored as described previously ([30]). Briefly, the scoring was as follows: 0 = none, 1 = predominantly cartilaginous, 2 = mixed cartilage and bone with active vascular invasion and endochondral ossification, 3 = predominantly bone. SBP thickness was measured to analyze subchondral bone sclerosis. All experiments were independently performed over at least three replicates. […] For each sample, measurements were performed on serial sections, and the mean value was calculated for analysis. The samples were […] by treating with 0.5 M ethylenediamine tetraacetic acid (pH 8.0) for 2 weeks. Next, mouse knee joint samples were fixed using 4% paraformaldehyde and embedded in paraffin. The paraffin-embedded samples were cut into 5-μm sections and fixed on glass slides. The tissue sections were then hydrated using a graded ethanol series, which removed paraffin and xylene. Mouse knee joint sections were immunohistochemically analyzed using anti-Mmp3 (ab52915, Abcam, Cambridge, UK), anti-Mmp13 (ab51072, Abcam), and anti-Cox2 (66351-I-Ig, ProteinTech, Rosemont, ILllinois, USA).
# [3] = test system: DMM-induced OA in C57BL/6J mice; assay: DMM-induced OA mouse model, intra-articular injection; type: in vivo
# Experimental: as §1, §2
# [4] = biological target: T1, BRD4 (BD1 + BD2) (Homo sapiens, UniProt O60885); assay: TR-FRET assay, BRD4 (BD1 + BD2); conditions: lower signal = stronger binding
# T1 construct: BRD4 (BD1 + BD2); purchased BPS Bioscience
# Experimental: TR-FRET assays were conducted using kits specific for BRD2 (BD1 + BD2), BRD3 (BD1 + BD2), and BRD4 (BD1 + BD2) obtained from BPS Bioscience (San Diego, CA, USA). Bromodomain ligands were diluted in water, and master mixes were prepared by combining the diluted ligands with 1× BRD Homogeneous Assay Buffer. Thawed BRD proteins were also diluted with the same buffer. For each assay, 1.5 μL of the master mix was dispensed into wells of a microplate (Labcyte, San Jose, CA, USA), followed by the addition of 5 μL of diluted BRD protein to initiate the reaction. Plates were incubated at 20–22°C for 30–60 min. Subsequently, glutathione (GSH) acceptor beads and streptavidin-conjugated donor beads (both from PerkinElmer, Waltham, MA, USA) were diluted in 1× BRD Homogeneous Detection Buffer 1. Next, 10 μL of the acceptor bead solution was added to each well and incubated at 18°C for 30 min, followed by the addition of 10 μL of donor bead solution and a further incubation at 18°C for 15–30 min. Alpha particle counts were measured using an EnVision 2105 multimode plate reader (PerkinElmer).
# [5] = oral 50 mg/kg on alternate days from 4 weeks after DMM, 10 weeks after surgery, vs vehicle
# [6] = IA injection 10 μg once a week from 4 weeks after DMM, 10 weeks after surgery, vs PBS
smiles,measurement,setting,value
"CNC(=O)CC1C(=O)NCCN1Cc1ccc(-c2ccccc2-c2cccc3c2CN(C)C3=O)o1 (stereo not drawn) [NCD, N-methyl-2-(1-((5-(2-(2-methyl-1-oxoisoindolin-4-yl)phenyl)furan-2-yl)methyl)-3-oxopiperazin-2-yl)acetamide]",Degradation of IκB,[1],effectively prevented
same,Phosphorylation level of ERK,[1],markedly reduced
same,Phosphorylation level of JNK,[1],markedly reduced
same,Phosphorylation of the p65 subunit,[1],significantly suppressed
same,p38 phosphorylation,[1],remained largely unaffected
same,OARSI score,[2]; [5],decrease
same,Osteophyte maturity,[2]; [5],decrease
same,SBP thickness,[2]; [5],decrease
same,"Expression of Mmp3, Mmp13 and Cox2 in articular cartilage (immunohistochemistry)","[2]; oral 50 mg/kg, DMM mice",markedly reduced expression levels
same,NITEGE levels (aggrecan degradation neoepitope),"[2]; oral 50 mg/kg, DMM mice",significantly reduced
same,Type II collagen (immunohistochemistry),"[2]; oral 50 mg/kg, DMM mice",restored
same,OARSI grade,[3]; [6],significant reduction
same,Osteophyte maturity,[3]; [6],significant reduction
same,SBP thickness,[3]; [6],significant reduction
same,"Expression of Mmp3, Mmp13 and Cox2 in knees (immunohistochemistry)","[3]; IA injection 10 μg, DMM mice",lower expression levels
same,NITEGE expression,"[3]; IA injection 10 μg, DMM mice",reduced
same,Type II collagen levels (immunohistochemistry),"[3]; IA injection 10 μg, DMM mice",partially preserved
same,TR-FRET value,[4],> 100000 RLU
